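Cells were grown in 96-well plates and exposed to each compound for 48 hours at five concentrations; endpoints were interpolated linearly between bracketing concentrations, or set to the highest concentration if not reached. TGI is the concentration that stops growth completely.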
Columns and labels:
Assay in all cases: NCI tumour cell line growth inhibition, 48 h
BT-549 breast = test system: BT-549 breast
DU-145 prostate = test system: DU-145 prostate
NCI-H522 lung = test system: NCI-H522 lung
HOP-92 NSCLC = test system: HOP-92 NSCLC
SF-539 CNS = test system: SF-539 CNS
TK-10 renal = test system: TK-10 renal
UO-31 renal = test system: UO-31 renal
RPMI-8226 leukemia = test system: RPMI-8226 leukemia
T-47D breast = test system: T-47D breast
OVCAR-3 ovarian = test system: OVCAR-3 ovarian
SF-268 CNS = test system: SF-268 CNS
SNB-75 CNS = test system: SNB-75 CNS
SW-620 colon = test system: SW-620 colon
A498 renal = test system: A498 renal
LOX IMVI melanoma = test system: LOX IMVI melanoma
KM12 colon = test system: KM12 colon
HCT-116 colon = test system: HCT-116 colon
NCI/ADR-RES ovarian = test system: NCI/ADR-RES ovarian
MDA-MB-435 = test system: MDA-MB-435
PC-3 prostate = test system: PC-3 prostate
SNB-19 CNS = test system: SNB-19 CNS
SK-MEL-2 melanoma = test system: SK-MEL-2 melanoma
HS 578T breast = test system: HS 578T breast
HCT-15 colon = test system: HCT-15 colon
MDA-MB-231 breast = test system: MDA-MB-231 breast
COLO 205 colon = test system: COLO 205 colon
ACHN renal = test system: ACHN renal
NCI-H226 lung = test system: NCI-H226 lung
NCI-H460 lung = test system: NCI-H460 lung
NCI-H23 lung = test system: NCI-H23 lung
CAKI-1 renal = test system: CAKI-1 renal
HOP-62 NSCLC = test system: HOP-62 NSCLC
SF-295 CNS = test system: SF-295 CNS
U251 CNS = test system: U251 CNS
EKVX NSCLC = test system: EKVX NSCLC
HCC-2998 colon = test system: HCC-2998 colon
M14 melanoma = test system: M14 melanoma
K-562 leukemia = test system: K-562 leukemia
SK-MEL-28 melanoma = test system: SK-MEL-28 melanoma
HT29 colon = test system: HT29 colon
CCRF-CEM leukemia = test system: CCRF-CEM leukemia
OVCAR-8 ovarian = test system: OVCAR-8 ovarian
SK-OV-3 ovarian = test system: SK-OV-3 ovarian
SK-MEL-5 melanoma = test system: SK-MEL-5 melanoma
UACC-62 melanoma = test system: UACC-62 melanoma
MOLT-4 leukemia = test system: MOLT-4 leukemia
OVCAR-4 ovarian = test system: OVCAR-4 ovarian
SN12C renal = test system: SN12C renal
MDA-N = test system: MDA-N
A549 NSCLC = test system: A549 NSCLC
MCF7 breast = test system: MCF7 breast
HL-60(TB) leukemia = test system: HL-60(TB) leukemia
IGROV1 ovarian = test system: IGROV1 ovarian
786-0 renal = test system: 786-0 renal
OVCAR-5 ovarian = test system: OVCAR-5 ovarian
UACC-257 melanoma = test system: UACC-257 melanoma
MALME-3M melanoma = test system: MALME-3M melanoma
RXF 393 renal = test system: RXF 393 renal

SMILES: COC1CC(OC2CCC3(C)C(=CCC4C3C(OC(C)=O)C(OC(=O)CC(C)C)C3(C)C(C(C)=O)CCC43O)C2)OC(C)C1OC1CC(OC)C(OC2CC(OC)C(OC3OC(C)C(OC4OC(CO)C(O)C(O)C4O)C(OC)C3O)C(C)O2)C(C)O1 (configuration not stated)
- TGI (BT-549 breast): > 75 µM
- TGI (DU-145 prostate): > 75 µM
- TGI (NCI-H522 lung): > 75 µM
- TGI (HOP-92 NSCLC): > 75 µM
- TGI (SF-539 CNS): > 75 µM
- TGI (TK-10 renal): > 75 µM
- TGI (UO-31 renal): > 75 µM
- TGI (RPMI-8226 leukemia): > 75 µM
- TGI (T-47D breast): > 75 µM
- TGI (OVCAR-3 ovarian): > 75 µM
- TGI (SF-268 CNS): > 75 µM
- TGI (SNB-75 CNS): > 75 µM
- TGI (SW-620 colon): > 75 µM
- TGI (A498 renal): > 75 µM
- TGI (LOX IMVI melanoma): > 75 µM
- TGI (KM12 colon): > 75 µM
- TGI (HCT-116 colon): > 75 µM
- TGI (NCI/ADR-RES ovarian): > 75 µM
- TGI (MDA-MB-435): > 75 µM
- TGI (PC-3 prostate): > 75 µM
- TGI (SNB-19 CNS): > 75 µM
- TGI (SK-MEL-2 melanoma): > 75 µM
- TGI (HS 578T breast): > 75 µM
- TGI (HCT-15 colon): > 75 µM
- TGI (MDA-MB-231 breast): > 75 µM
- TGI (COLO 205 colon): > 75 µM
- TGI (ACHN renal): > 75 µM
- TGI (NCI-H226 lung): > 75 µM
- TGI (NCI-H460 lung): > 7.5 µM
- TGI (NCI-H23 lung): > 75 µM
- TGI (CAKI-1 renal): > 75 µM
- TGI (HOP-62 NSCLC): > 75 µM
- TGI (SF-295 CNS): > 75 µM
- TGI (U251 CNS): > 75 µM
- TGI (EKVX NSCLC): > 75 µM
- TGI (HCC-2998 colon): > 75 µM
- TGI (M14 melanoma): > 75 µM
- TGI (K-562 leukemia): > 75 µM
- TGI (SK-MEL-28 melanoma): > 75 µM
- TGI (HT29 colon): > 75 µM
- TGI (CCRF-CEM leukemia): > 7.5 µM
- TGI (OVCAR-8 ovarian): > 75 µM
- TGI (SK-OV-3 ovarian): > 75 µM
- TGI (SK-MEL-5 melanoma): > 75 µM
- TGI (UACC-62 melanoma): > 75 µM
- TGI (MOLT-4 leukemia): > 75 µM
- TGI (OVCAR-4 ovarian): > 75 µM
- TGI (SN12C renal): > 75 µM
- TGI (MDA-N): > 75 µM
- TGI (A549 NSCLC): > 75 µM
- TGI (MCF7 breast): > 75 µM
- TGI (HL-60(TB) leukemia): > 75 µM
- TGI (IGROV1 ovarian): > 75 µM
- TGI (786-0 renal): > 75 µM
- TGI (OVCAR-5 ovarian): > 75 µM
- TGI (UACC-257 melanoma): > 75 µM

SMILES: CC(=O)c1ccc(O)c(CN(C2CCCCC2)C2CCCCC2)c1O
- TGI (BT-549 breast): > 100 µM
- TGI (DU-145 prostate): > 100 µM
- TGI (NCI-H522 lung): > 100 µM
- TGI (HOP-92 NSCLC): > 100 µM
- TGI (MALME-3M melanoma): > 100 µM
- TGI (SF-539 CNS): > 100 µM
- TGI (TK-10 renal): > 100 µM
- TGI (UO-31 renal): > 100 µM
- TGI (RXF 393 renal): > 100 µM
- TGI (RPMI-8226 leukemia): > 100 µM
- TGI (T-47D breast): > 100 µM
- TGI (OVCAR-3 ovarian): > 100 µM
- TGI (SF-268 CNS): > 100 µM
- TGI (SNB-75 CNS): > 100 µM
- TGI (SW-620 colon): > 100 µM
- TGI (A498 renal): > 100 µM
- TGI (LOX IMVI melanoma): > 100 µM
- TGI (KM12 colon): > 100 µM
- TGI (HCT-116 colon): > 100 µM
- TGI (NCI/ADR-RES ovarian): > 100 µM
- TGI (MDA-MB-435): > 100 µM
- TGI (PC-3 prostate): > 100 µM
- TGI (SNB-19 CNS): > 100 µM
- TGI (SK-MEL-2 melanoma): > 100 µM
- TGI (HS 578T breast): > 100 µM
- TGI (HCT-15 colon): > 100 µM
- TGI (MDA-MB-231 breast): > 100 µM
- TGI (COLO 205 colon): > 100 µM
- TGI (ACHN renal): > 100 µM
- TGI (NCI-H226 lung): > 100 µM
- TGI (NCI-H460 lung): > 100 µM
- TGI (NCI-H23 lung): > 100 µM
- TGI (CAKI-1 renal): > 100 µM
- TGI (HOP-62 NSCLC): > 100 µM
- TGI (SF-295 CNS): > 100 µM
- TGI (U251 CNS): > 100 µM
- TGI (EKVX NSCLC): > 100 µM
- TGI (M14 melanoma): > 100 µM
- TGI (K-562 leukemia): > 100 µM
- TGI (SK-MEL-28 melanoma): > 100 µM
- TGI (HT29 colon): > 100 µM
- TGI (CCRF-CEM leukemia): 1.88 µM
- TGI (OVCAR-8 ovarian): > 100 µM
- TGI (SK-OV-3 ovarian): > 100 µM
- TGI (SK-MEL-5 melanoma): > 100 µM
- TGI (UACC-62 melanoma): > 100 µM
- TGI (MOLT-4 leukemia): > 100 µM
- TGI (OVCAR-4 ovarian): > 100 µM
- TGI (SN12C renal): > 100 µM
- TGI (MDA-N): > 100 µM
- TGI (A549 NSCLC): > 100 µM
- TGI (MCF7 breast): > 100 µM
- TGI (IGROV1 ovarian): > 100 µM
- TGI (786-0 renal): > 100 µM
- TGI (OVCAR-5 ovarian): > 100 µM
- TGI (UACC-257 melanoma): > 100 µM

Reference: PubChem BioAssay (NCI)
